Data reported in ChEMBL document CHEMBL1212927, “Synthesis and structure-activity relationships of novel 8a-aza-8a-homoerythromycin A ketolides” (2010).
≈ marks a conversion by molar mass, not a printed value.

Assays:
Streptococcus pyogenes [1] = experiment: Antibacterial activity against inducible macrolide-lincosamide-streptogramin B-resistant Streptococcus pyogenes B0543 by agar microdilution method; type: functional
Moraxella catarrhalis = experiment: Antibacterial activity against Moraxella catarrhalis B0324 by agar microdilution method; type: functional
Streptococcus pneumoniae [2] = experiment: Antibacterial activity against constitutive macrolide-lincosamide-streptogramin B-resistant Streptococcus pneumoniae B0627 by agar microdilution method; type: functional
Haemophilus influenzae = experiment: Antibacterial activity against Haemophilus influenzae B0529 by agar microdilution method; type: functional
Staphylococcus aureus [3] = experiment: Antibacterial activity against inducible macrolide-lincosamide-streptogramin B-resistant Staphylococcus aureus B0538 by agar microdilution method; type: functional
Staphylococcus aureus [4] = experiment: Antibacterial activity against erythromycin A-susceptible Staphylococcus aureus B0329 by agar microdilution method
Streptococcus pneumoniae [5] = experiment: Antibacterial activity against efflux-resistant Streptococcus pneumoniae B0326 by agar microdilution method; type: functional
Staphylococcus aureus [6] = experiment: Antibacterial activity against efflux-resistant Staphylococcus aureus B0331 by agar microdilution method; type: functional
Streptococcus pyogenes [7] = experiment: Antibacterial activity against erythromycin A-susceptible Streptococcus pyogenes B0542 by agar microdilution method
Streptococcus pyogenes [8] = experiment: Antibacterial activity against constitutive macrolide-lincosamide-streptogramin B-resistant Streptococcus pyogenes B0544 by agar microdilution method; type: functional
Streptococcus pyogenes [9] = experiment: Antibacterial activity against efflux-resistant Streptococcus pyogenes B0545 by agar microdilution method; type: functional
Staphylococcus aureus [10] = experiment: Antibacterial activity against constitutive macrolide-lincosamide-streptogramin B-resistant Staphylococcus aureus B0330 by agar microdilution method; type: functional
Streptococcus pneumoniae [11] = experiment: Antibacterial activity against erythromycin-susceptible Streptococcus pneumoniae B0541 by agar microdilution method

| SMILES | MIC (Streptococcus pyogenes [1]) [µg/mL] | MIC (Moraxella catarrhalis) [µg/mL] | MIC (Streptococcus pneumoniae [2]) [µg/mL] | MIC (Haemophilus influenzae) [µg/mL] | MIC (Staphylococcus aureus [3]) [µg/mL] | MIC (Staphylococcus aureus [4]) [µg/mL] | MIC (Streptococcus pneumoniae [5]) [µg/mL] | MIC (Staphylococcus aureus [6]) [µg/mL] | MIC (Streptococcus pyogenes [7]) [µg/mL] | MIC (Streptococcus pyogenes [8]) [µg/mL] | MIC (Streptococcus pyogenes [9]) [µg/mL] | MIC (Staphylococcus aureus [10]) [µg/mL] | MIC (Streptococcus pneumoniae [11]) [µg/mL] |
| --- | --- | --- | --- | --- | --- | --- | --- | --- | --- | --- | --- | --- | --- |
| CC[C@H]1OC(=O)[C@H](C)C(=O)[C@H](C)[C@@H](O[C@@H]2O[C@H](C)C[C@H](N(C)C)[C@H]2O)[C@](C)(OCC(O)CNCCCCc2cccnc2)C[C@@H](C)NC(=O)[C@H](C)[C@@H](O)[C@]1(C)O (stereo partly specified) | ≤ 0.125 | ≤ 0.125 | 0.5 (≈ 0.629 µM) | 2 (≈ 2.52 µM) | 1 (≈ 1.26 µM) | 0.5 (≈ 0.629 µM) | 1 (≈ 1.26 µM) | 1 (≈ 1.26 µM) | ≤ 0.125 | 4 (≈ 5.03 µM) | 0.5 (≈ 0.629 µM) | > 64 | ≤ 0.125 |
| CC[C@H]1OC(=O)[C@H](C)C(=O)[C@H](C)[C@@H](O[C@@H]2O[C@H](C)C[C@H](N(C)C)[C@H]2O)[C@](C)(OCC(O)CNCCCCc2ccccn2)C[C@@H](C)NC(=O)[C@H](C)[C@@H](O)[C@]1(C)O (stereo partly specified) | 0.5 (≈ 0.629 µM) | ≤ 0.125 | 2 (≈ 2.52 µM) | 4 (≈ 5.03 µM) | 4 (≈ 5.03 µM) | 1 (≈ 1.26 µM) | 4 (≈ 5.03 µM) | 2 (≈ 2.52 µM) | 0.25 (≈ 0.314 µM) | 32 (≈ 40.3 µM) | 1 (≈ 1.26 µM) | > 64 | ≤ 0.125 |
| CC[C@H]1OC(=O)[C@H](C)C(=O)[C@H](C)[C@@H](O[C@@H]2O[C@H](C)C[C@H](N(C)C)[C@H]2O)[C@](C)(OCC(O)CN2CCN(c3ccc(F)cc3)CC2)C[C@@H](C)NC(=O)[C@H](C)[C@@H](O)[C@]1(C)O (stereo partly specified) | 4 (≈ 4.85 µM) | 4 (≈ 4.85 µM) | 32 (≈ 38.8 µM) | 32 (≈ 38.8 µM) | 16 (≈ 19.4 µM) | 4 (≈ 4.85 µM) | 16 (≈ 19.4 µM) | 16 (≈ 19.4 µM) | ≤ 0.125 | > 64 | 4 (≈ 4.85 µM) | > 64 | 0.5 (≈ 0.606 µM) |
| CC[C@H]1OC(=O)[C@H](C)C(=O)[C@H](C)[C@@H](O[C@@H]2O[C@H](C)C[C@H](N(C)C)[C@H]2O)[C@](C)(OCC(O)CN2CCN(c3ccc([N+](=O)[O-])cc3)CC2)C[C@@H](C)NC(=O)[C@H](C)[C@@H](O)[C@]1(C)O (stereo partly specified) | 2 (≈ 2.35 µM) | 0.5 (≈ 0.587 µM) | 4 (≈ 4.69 µM) | 8 (≈ 9.39 µM) | 2 (≈ 2.35 µM) | 1 (≈ 1.17 µM) | 2 (≈ 2.35 µM) | 2 (≈ 2.35 µM) | 0.25 (≈ 0.293 µM) | 8 (≈ 9.39 µM) | 1 (≈ 1.17 µM) | > 64 | ≤ 0.125 |
| CC[C@H]1OC(=O)[C@H](C)C(=O)[C@H](C)[C@@H](O[C@@H]2O[C@H](C)C[C@H](N(C)C)[C@H]2O)[C@](C)(OCC(O)CNc2cnc3ccccc3c2)C[C@@H](C)NC(=O)[C@H](C)[C@@H](O)[C@]1(C)O (stereo partly specified) | 4 (≈ 5.07 µM) | 0.5 (≈ 0.634 µM) | 8 (≈ 10.1 µM) | 8 (≈ 10.1 µM) | 2 (≈ 2.53 µM) | 2 (≈ 2.53 µM) | 2 (≈ 2.53 µM) | 1 (≈ 1.27 µM) | ≤ 0.125 | 16 (≈ 20.3 µM) | 8 (≈ 10.1 µM) | > 64 | ≤ 0.125 |
| CC[C@H]1OC(=O)[C@H](C)C(=O)[C@H](C)[C@@H](O[C@@H]2O[C@H](C)C[C@H](N(C)C)[C@H]2O)[C@](C)(OCC(O)CNc2ccc3ncccc3c2)C[C@@H](C)NC(=O)[C@H](C)[C@@H](O)[C@]1(C)O (stereo partly specified) | 2 (≈ 2.53 µM) | 1 (≈ 1.27 µM) | 2 (≈ 2.53 µM) | 0.5 (≈ 0.634 µM) | 2 (≈ 2.53 µM) | 1 (≈ 1.27 µM) | 1 (≈ 1.27 µM) | 0.25 (≈ 0.317 µM) | ≤ 0.125 | 8 (≈ 10.1 µM) | 4 (≈ 5.07 µM) | > 64 | ≤ 0.125 |
| CC[C@H]1OC(=O)[C@H](C)C(=O)[C@H](C)[C@@H](O[C@@H]2O[C@H](C)C[C@H](N(C)C)[C@H]2O)[C@](C)(OCC(O)CNCc2ccc3ncccc3c2)C[C@@H](C)NC(=O)[C@H](C)[C@@H](O)[C@]1(C)O (stereo partly specified) | 2 (≈ 2.49 µM) | 1 (≈ 1.25 µM) | 4 (≈ 4.98 µM) | 1 (≈ 1.25 µM) | 0.5 (≈ 0.623 µM) | 0.5 (≈ 0.623 µM) | 1 (≈ 1.25 µM) | 0.25 (≈ 0.311 µM) | ≤ 0.125 | 8 (≈ 9.96 µM) | 2 (≈ 2.49 µM) | > 64 | ≤ 0.125 |
